Source: patent publication US4044137A, “2-(Phenylthiopropyl)-5-aryl-1,2,3,4-tetrahydro-γ-carbolines” (Pfizer Inc., priority 1976, dated 1977)
Where a name gives a salt, the structure may show the parent alone.

System: amphetamine-induced symptoms
Test: antagonism of amphetamine-induced symptoms (cage movement) in rats
Format: in vivo
Settings: test compound i.p., 1 hr., d-amphetamine sulfate 5 mg./kg. i.p. given 1 hr. after compound, rated one hour after amphetamine
From the text: The tranquilizing agents of the present invention are characterized by relief of such schizophrenic manifestations in humans as hallucinations, hostility, suspiciousness, emotional or social withdrawal, anxiety, agitation and tension. Standard procedures of detecting and comparing tranquilizing activity of compounds in this series and for which there is an excellent correlation with human efficacy is the antagonism of amphetamine-induced symptoms in rats test, as taught by A. Weissman, et al., J. Pharmacol. Exp. Ther., 151, 339 (1966) and by Quinton, et al., Nature, 200, 178 (1963).
The effects of the compounds of the present invention on prominent amphetamine-induced symptoms were studied in rats by a rating scale modeled after the one reported by Quinton and Halliwell and by Weissman. Groups of five rats were placed in a covered plastic cage measuring approximately 26 × 42 × 16 cm. After a brief period of acclimation in the cage, the rats in each group were treated intraperitoneally (i.p.) with the test compound. […] On the basis of dose-response data after amphetamine it was possible to determine the effective dose of the compound necessary to antagonize or block the characteristic amphetamine behavior of cage movement for fifty percent of the rats tested (ED50). […]

Row | Structure (SMILES) | ED50 (effective dose to antagonize or block the characteristic amphetamine behavior of cage movement for fifty percent of the rats tested) [mg/kg]
1 | Fc1ccc(SCCCN2CCc3c(c4cc(F)ccc4n3-c3ccc(F)cc3)C2)cc1 [F F F 0, 8-Fluoro-5-(p-fluorophenyl)-2-[3-(p-fluorophenylthio)propyl]-1,2,3,4-tetrahydro-γ-carboline hydrochloride] | 32
2 | [O-][S+](CCCN1CCc2c(c3cc(F)ccc3n2-c2ccc(F)cc2)C1)c1ccc(F)cc1 (centres unmarked) [F F F 1, 8-fluoro-5-(p-fluorophenyl)-2-[3-(p-fluorophenylsulfinyl)propyl]-1,2,3,4-tetrahydro-γ-carboline hydrochloride] | 10
